Laboratory results published in ChEMBL document CHEMBL4190297, “Cafestol, a Bioactive Substance in Coffee, Has Antidiabetic Properties in KKAy Mice” (J Nat Prod, 2017).
Calls of active or inactive are those of the source. The rule behind the calls is not given here.

Experiments:
[1] = species: Mus musculus; assay: Effect on FAS mRNA expression levels in muscle of KK-Ay diabetic mouse model at 0.4 to 1.1 mg added daily to normal chow pellets for 10 weeks by qRT-PCR analysis; type: functional, organism-based
[2] = species: Mus musculus; assay: Effect on triglyceride concentration in liver of KK-Ay diabetic mouse model at 0.4 to 1.1 mg added daily to normal chow pellets for 10 weeks; type: functional, organism-based
[3] = species: Mus musculus; assay: Effect on InsR mRNA expression levels in muscle of KK-Ay diabetic mouse model at 0.4 to 1.1 mg added daily to normal chow pellets for 10 weeks by qRT-PCR analysis; type: functional, organism-based
[4] = species: Mus musculus; assay: Antidiabetic activity in KK-Ay diabetic mouse model assessed as reduction in HOMA-IR levels at 0.4 mg added daily to normal chow pellets for 10 weeks; type: functional, organism-based
[5] = species: Mus musculus; assay: Antidiabetic activity in KK-Ay diabetic mouse model assessed as reduction in plasma glucagon levels at 1.1 mg added daily to normal chow pellets for 10 weeks relative to control by radioimmunoassay; type: functional; set-up: scale not given: the % may be the effect or the level left
[6] = species: Mus musculus; assay: Antidiabetic activity in KK-Ay diabetic mouse model assessed as increase in insulin levels in plasma at 1.1 mg added daily to normal chow pellets for 10 weeks by radioimmunoassay; type: functional, organism-based
[7] = species: Mus musculus; assay: Effect on FABP4 mRNA expression levels in muscle of KK-Ay diabetic mouse model at 0.4 to 1.1 mg added daily to normal chow pellets for 10 weeks by qRT-PCR analysis; type: functional, organism-based
[8] = species: Mus musculus; assay: Effect on PPARgamma mRNA expression levels in liver of KK-Ay diabetic mouse model at 0.4 to 1.1 mg added daily to normal chow pellets for 10 weeks by qRT-PCR analysis; type: functional, organism-based
[9] = species: Mus musculus; assay: Effect on PPARgamma mRNA expression levels in adipose tissue of KK-Ay diabetic mouse model at 0.4 to 1.1 mg added daily to normal chow pellets for 10 weeks by qRT-PCR analysis; type: functional, organism-based
[10] = species: Mus musculus; assay: Effect on 18s rRNA expression levels in adipose tissue of KK-Ay diabetic mouse model at 0.4 to 1.1 mg added daily to normal chow pellets for 10 weeks by qRT-PCR analysis; type: functional, organism-based
[11] = species: Mus musculus; assay: Effect on Hprt1 mRNA expression levels in muscle of KK-Ay diabetic mouse model at 0.4 to 1.1 mg added daily to normal chow pellets for 10 weeks by qRT-PCR analysis; type: functional, organism-based
[12] = species: Mus musculus; assay: Effect on G6PD mRNA expression levels in liver of KK-Ay diabetic mouse model at 0.4 to 1.1 mg added daily to normal chow pellets for 10 weeks by qRT-PCR analysis; type: functional, organism-based
[13] = species: Mus musculus; assay: Induction of […] glucose-stimulated insulin secretion in pancreatic islets isolated from KK-Ay diabetic mouse model at 0.4 mg added daily to normal chow pellets for 10 weeks followed by glucose stimulation of isolated pancreatic islets for 1 hr by radioimmunoassay relative to control; type: functional
[14] = species: Mus musculus; assay: Toxicity in KK-Ay diabetic mouse model assessed as effect on body weight at 1.1 mg added daily to normal chow pellets for 4 weeks; type: organism-based; settings: in vivo, po, 672 h
[15] = species: Mus musculus; assay: Effect on PPARalpha mRNA expression levels in adipose tissue of KK-Ay diabetic mouse model at 0.4 to 1.1 mg added daily to normal chow pellets for 10 weeks by qRT-PCR analysis; type: functional, organism-based
[16] = species: Mus musculus; assay: Antidiabetic activity in KK-Ay diabetic mouse model assessed as mean fasting blood glucose level at 1.1 mg added daily to normal chow pellets for 10 weeks (reference value: 18 +/- 1.2 mmol/L); type: functional
[17] = species: Mus musculus; assay: Effect on CD36 mRNA expression levels in liver of KK-Ay diabetic mouse model at 0.4 to 1.1 mg added daily to normal chow pellets for 10 weeks by qRT-PCR analysis; type: functional, organism-based
[18] = species: Mus musculus; assay: Effect on SOD2 mRNA expression levels in adipose tissue of KK-Ay diabetic mouse model at 0.4 to 1.1 mg added daily to normal chow pellets for 10 weeks by qRT-PCR analysis; type: functional, organism-based
[19] = species: Mus musculus; assay: Antidiabetic activity in KK-Ay diabetic mouse model assessed as decrease in plasma triglycerides level at 0.14 to 1.1 mg added daily to normal chow pellets for 10 weeks by colorimetric analysis; type: functional, organism-based
[20] = species: Mus musculus; assay: Toxicity in KK-Ay diabetic mouse model assessed as effect on average 24 hrs food consumption by measured food consumption at 1.1 mg added daily to normal chow pellets for 10 weeks (reference value: 4.7 +/- 0.2 g); type: organism-based; settings: in vivo, po
[21] = species: Mus musculus; assay: Induction of […] glucose-stimulated insulin secretion in pancreatic islets isolated from KK-Ay diabetic mouse model at 1.1 mg added daily to normal chow pellets for 10 weeks followed by glucose stimulation of isolated pancreatic islets for 1 hr by radioimmunoassay relative to control; type: functional
[22] = species: Mus musculus; assay: Antidiabetic activity in KK-Ay diabetic mouse model assessed as increase in insulin levels in plasma at 0.4 mg added daily to normal chow pellets for 10 weeks by radioimmunoassay; type: functional, organism-based
[23] = species: Mus musculus; assay: Antidiabetic activity in KK-Ay diabetic mouse model assessed as reduction in plasma glucagon levels at 0.4 mg added daily to normal chow pellets for 10 weeks relative to control by radioimmunoassay; type: functional; set-up: scale not given: the % may be the effect or the level left
[24] = species: Mus musculus; assay: Effect on GLUT2 mRNA expression levels in muscle of KK-Ay diabetic mouse model at 0.4 to 1.1 mg added daily to normal chow pellets for 10 weeks by qRT-PCR analysis; type: functional, organism-based
[25] = species: Mus musculus; assay: Effect on Adipor1 mRNA expression levels in liver of KK-Ay diabetic mouse model at 0.4 to 1.1 mg added daily to normal chow pellets for 10 weeks by qRT-PCR analysis; type: functional, organism-based
[26] = species: Mus musculus; assay: Effect on GLUT2 mRNA expression levels in liver of KK-Ay diabetic mouse model at 0.4 to 1.1 mg added daily to normal chow pellets for 10 weeks by qRT-PCR analysis; type: functional, organism-based
[27] = species: Mus musculus; assay: Effect on SOD1 mRNA expression levels in liver of KK-Ay diabetic mouse model at 0.4 to 1.1 mg added daily to normal chow pellets for 10 weeks by qRT-PCR analysis; type: functional, organism-based
[28] = species: Mus musculus; assay: Effect on PKCdelta mRNA expression levels in adipose tissue of KK-Ay diabetic mouse model at 0.4 to 1.1 mg added daily to normal chow pellets for 10 weeks by qRT-PCR analysis; type: functional, organism-based
[29] = species: Mus musculus; assay: Effect on Adipor1 mRNA expression levels in muscle of KK-Ay diabetic mouse model at 0.4 to 1.1 mg added daily to normal chow pellets for 10 weeks by qRT-PCR analysis; type: functional, organism-based
[30] = species: Mus musculus; assay: Effect on SOD1 mRNA expression levels in muscle of KK-Ay diabetic mouse model at 0.4 to 1.1 mg added daily to normal chow pellets for 10 weeks by qRT-PCR analysis; type: functional, organism-based
[31] = species: Mus musculus; assay: Effect on JNK1 mRNA expression levels in muscle of KK-Ay diabetic mouse model at 0.4 to 1.1 mg added daily to normal chow pellets for 10 weeks by qRT-PCR analysis; type: functional, organism-based
[32] = species: Mus musculus; assay: Effect on Acaca mRNA expression levels in adipose tissue of KK-Ay diabetic mouse model at 0.4 to 1.1 mg added daily to normal chow pellets for 10 weeks by qRT-PCR analysis; type: functional, organism-based
[33] = species: Mus musculus; assay: Effect on Pi3K mRNA expression levels in muscle of KK-Ay diabetic mouse model at 0.4 to 1.1 mg added daily to normal chow pellets for 10 weeks by qRT-PCR analysis; type: functional, organism-based

C[C@@]12CCc3occc3[C@H]1CC[C@@]13C[C@H](CC[C@H]12)[C@@](O)(CO)C3
Activity [1]: inactive | Activity [2]: inactive | Activity [3]: inactive | Activity [4]: inactive | Activity [5]: 20% | Activity [6]: inactive | Activity [7]: inactive | Activity [8]: inactive | Activity [9]: inactive | Activity [10]: inactive | Activity [11]: inactive | Activity [12]: inactive | Activity [13]: 87% | Activity [14]: Non-Toxic | Activity [15]: inactive | Activity [16]: 12.9 mmol/L | Activity [17]: inactive | Activity [18]: inactive | Activity [19]: inactive | Activity [20]: 5.9 g | Activity [21]: 75% | Activity [22]: inactive | Activity [23]: 28% | Activity [24]: inactive | Activity [25]: inactive | Activity [26]: inactive | Activity [27]: inactive | Activity [28]: inactive | Activity [29]: inactive | Activity [30]: inactive | Activity [31]: inactive | Activity [32]: inactive | Activity [33]: inactive
